According to patent US20200016133A1, “PREVENTION AND TREATMENT OF THROMBOSIS IN MEDICALLY ILL PATIENTS” (Portola Pharmaceuticals, Inc., priority 2011, published 2020):

Experiment: effect of co-administered P-glycoprotein (Pgp) inhibitor on betrixaban exposure
Assay type: in vivo
Conditions: with concomitant Pgp inhibitor
Procedure: In some embodiments, a P-glycoprotein (Pgp) inhibitor is concomitantly administered to the patient. […] In one aspect, when used together with a Pgp inhibitor, betrixaban is administered at about 40 mg, or alternatively about 35 mg, or 30, or 25, or 20, or 15, or 10 mg daily. The same amount is applicable to patients who experience kidney insufficiency.

exposure of betrixaban: increases the exposure
SMILES: COc1ccc(NC(=O)c2ccc(C(=N)N(C)C)cc2)c(C(=O)Nc2ccc(Cl)cn2)c1 [betrixaban, [2-({4-[(dimethylamino)iminomethyl]phenyl}carbonylamino)-5-methoxyphenyl]-N-(5-chloro(2-pyridyl))carboxamide]
